# Data: patent US11289729B2, “Redox flow batteries and compounds for battery application” (THE TRUSTEES OF COLUMBIA UNIVERSITY IN THE CITY OF NEW YORK, priority 2017, dated 2022)
# Several values for one entry are separate records, joined by “and”; a condition that tells them apart may be missing. Equal values may be shown once.
# What was measured:
# [1] = Stability of charged spiro and cyclopropenium compounds on storage; format: physicochemical
# Text: The state of charge on discharge was 87%. […] Additionally, the calendar fade of the molecule was improved over certain previously reported high voltage organic radicals.
# [2] = Crossover of active molecules through the cellulose dialysis membrane in an H-cell (UV-Vis); format: physicochemical
# Experimental: The present example tested whether the membrane is amenable to large temperature excursions and to higher-voltage second generation compounds. The membrane was exposed to high (110° C.) and low (−20° C.) temperatures, as well as to strong reducing and oxidizing conditions, after which, dialysis was performed. Details are disclosed below. For example, the membrane was soaked in a solution of sodium naphthalenide (approximately −3.0 V vs Fc^0/+) and subsequently assembled an H-cell with this membrane. One chamber of the H-cell was filled with [PDI][TFSI]2 in acetonitrile (FIG. 1), while the other contained pure acetonitrile. [PDI][TFSI]2 was used for crossover experiments due to its smaller sized and strong absorption. […] Moreover, typical aqueous cells would not be operable at these extreme temperatures.
# The present example next quantitatively assessed the impact of these treatments on the membrane's performance under battery operating conditions. […] To quantify the amount of crossover, UV-Vis spectra of the [Fc4] chamber was taken. […] Additionally, the low concentration cell above (FIG. 7D) was dismantled after cycling and checked for crossover. […] The key finding is that the cellulose based membrane is effective in organic solvents over long periods of time, stable to a >3 V voltage window, and stable to temperatures outside the range available for aqueous systems.
# The membranes were soaked in water for 1 h before treatment. For high temperature, the membrane was rinsed with propylene carbonate, placed in propylene carbonate and heated to 110° C. overnight in a vial. For low temperature, the membrane was rinsed with acetonitrile and placed in acetonitrile in a vial in a −20° C. freezer overnight. For oxidizing conditions, the membrane was rinsed with acetonitrile and stirred in nitrosonium tetrafluoroborate (NOBF4, 0.1 M in acetonitrile) for 4 h. For reducing conditions, the membrane was rinsed with anhydrous diglyme, placed in anhydrous diglyme, and sparged for 3 h before being brought into a glove box. It was rinsed in a fresh solution of diglyme before being added to a solution of sodium naphthalenide (0.1 M in diglyme) in a glove box for 1 h. The sodium naphthalenide was a persistent dark green the entire time indicating no quenching of the reagent. A control where the membrane was only soaked in water and rinsed with acetonitrile was also performed.
# Following these conditions, [PDI][TFSI]2 (20 mg) and LiPF6 (60 mg) in acetonitrile were added to one side of the H-cell. […] The blank side was colorless for all conditions except nitrosonium tetrafluoroborate, where a minimal amount of fluorescence could be seen. The control H-cell was monitored for crossover for a further 12 days, at which point the absorbance was measured by UV-visible spectroscopy and the amount determined using the molar absorptivity of [PDI][TFSI]2 (0.05% over 12 days, FIG. 10 and FIG. 11).
# After these qualitative experiments, membranes treated to the same four conditions as mentioned above were brought into the glovebox in degassed anhydrous solvent and used for cycling experiments with 19 mg [PDI][TFSI]2 and 9 mg [Fc4] in 0.5M LiPF6 (FIG. 9C). The cells were run at a 1 C current (0.7 mA) for 12 cycles. At the end of the experiment, the UV-visible spectrum was taken of the [Fc4] side. […]
# [3] = Solubility / maximum concentration of the electrolytes in organic solvent
# [4] = acetonitrile vs pure acetonitrile, stirring overnight
# [5] = cycling H-cell, 1 C, 12 cycles, 0.5 M LiPF6, UV-Vis of [Fc4] side
substance,measurement,setting,value
dimethylpiperidine cyclopropenium,persistence of charged state,[1]; 3 months out of glovebox,still charged
perylene diimide trifluoromethane sulfonimide [[PDI][TFSI]2],"visible crossover, NOBF4-treated membrane",[2]; [4],slight fluorescence from crossover
same,"visible crossover, sodium naphthalenide-treated membrane",[2]; [4],no detectable crossover
same,"crossover, control membrane","[2]; control H-cell, acetonitrile with LiPF6, over 12 days",0.05%
same,"crossover, NOBF4-treated (oxidizing) membrane",[2]; [5],1.25%
same,"crossover, cold (−20° C.) treated membrane",[2]; [5],< 0.05% and 0.032%
same,"crossover, hot (110° C.) treated membrane",[2]; [5],< 0.05% and 0.028%
same,"crossover, sodium naphthalenide-treated (reducing) membrane",[2]; [5],< 0.05% and 0.038%
same,crossover after long-term cycling,[2]; low concentration cell dismantled after >30 days and >250 cycles,0.2%
same,concentration accessible in acetonitrile,[3],1 M electron
spiro-ethylphthalimide [spirophthalimide],degradation in charged state (1H NMR),[1]; 1 week of charge,No degradation
